According to patent US7718641B2, “Pyrrolo [3,4-H] isoquinoline compounds and methods for modulating gated ion channels” (Aros Pharma ApS, priority 2005, dated 2010):

Columns and labels:
hASIC1a [1] = molecular target: T1, hASIC1a (Homo sapiens, UniProt P78348); experiment: Calcium-imaging (FLIPR, Fluo-4) of acid (MES)-induced calcium response in ASIC1a expressing HEK293 cells; assay type: cell-based; parameters: expressed in transfected cells; host or cells: HEK293; settings: for IC50: calcium mobilization assay, MES-induced calcium response, HEK293, n=3-7; for inhibitory effect on acid-induced hASIC1a activity (dose-response curve): HEK293 transfected with hASIC1a, intracellular calcium, increasing concentrations
T1 sequence (P78348 1-528): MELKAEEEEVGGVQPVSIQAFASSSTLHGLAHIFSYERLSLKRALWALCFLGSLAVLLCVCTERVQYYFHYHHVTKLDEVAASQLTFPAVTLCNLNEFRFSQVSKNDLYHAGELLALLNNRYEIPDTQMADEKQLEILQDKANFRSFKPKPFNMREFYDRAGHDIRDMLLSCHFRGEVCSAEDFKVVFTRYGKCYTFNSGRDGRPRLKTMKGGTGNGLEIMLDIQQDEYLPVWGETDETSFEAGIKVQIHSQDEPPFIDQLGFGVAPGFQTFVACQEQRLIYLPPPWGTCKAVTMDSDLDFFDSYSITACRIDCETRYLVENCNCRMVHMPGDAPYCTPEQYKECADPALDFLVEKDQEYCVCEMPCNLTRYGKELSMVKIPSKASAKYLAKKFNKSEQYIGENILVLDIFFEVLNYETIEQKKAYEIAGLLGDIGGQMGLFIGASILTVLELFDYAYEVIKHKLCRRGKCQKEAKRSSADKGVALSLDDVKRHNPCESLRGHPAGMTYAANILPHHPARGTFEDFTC
Procedure: ASIC1a expressing HEK293 cells are grown in culture medium (DMEM with 10% FBS), in polystyrene culture flasks ([…]) at 37° C. in a humidified atmosphere of 5% CO2. Confluency of cells should be 80-90% on day of plating. Cells are rinsed with 10 ml of PBS and re-suspended by addition of culture medium and trituration with a 25 ml pipette.
The cells are seeded at a density of approximately 1×10^6 cells/ml (100 μl/well) in black-walled, clear bottom, 96-well plates pre-treated with 10 mg/l poly-D-lysin (75 μl/well for ≧30 min). Plated cells were allowed to proliferate for 24 h before loading with dye.
Fluo-4/AM (1 mg, Molecular Probes) is dissolved in 912 μl DMSO. The Fluo-4/AM stock solution (1 mM) is diluted with culture medium to a final concentration of 2 μM (loading solution).
The culture medium is aspirated from the wells, and 50 μl of the Fluo-4/AM loading solution is added to each well. The cells are incubated at 37° C. for 30 min.
After the loading period, the loading solution is aspirated and the cells are washed twice with 100 μl modified Assay Buffer (145 mM NaCl, 5 mM KCl, 5 mM CaCl2, 1 mM MgCl2, 10 mM HEPES, pH 7.4) to remove extracellular dye. Following the second wash, 100 μl modified Assay Buffer is added to each well and the fluorescence is measured in FLIPR™ or FlexStation™ (Molecular Devices, USA), or any other suitable equipment known to the skilled in the art.
Temperature: Room temperature (20-22° C.)
First addition: 50 μl test solution at a rate of 30 μl/sec and a starting height of 100 μl.
Second addition: 50 μl MES solution (20 mM, 5 mM final concentration) at a rate of 35 μl/sec and a starting height of 150 μl.
Reading intervals: pre-incubation—10 sec×7 and 3 sec×3 antagonist phase—3 sec×17 and 10 sec×12
Addition plates (compound test plate and MES plate) are placed on the right and left positions in the FLIPR tray, respectively. Cell plates are placed in the middle position and the ASIC1a program is effectuated. FLIPR will then take the appropriate measurements in accordance with the interval settings above. Fluorescence obtained after stimulation is corrected for the mean basal fluorescence (in modified Assay Buffer).
The MES-induced peak calcium response, in the presence of test substance, is expressed relatively to the MES response alone. Test substances that block the MES-induced calcium response are re-tested in triplicates. Confirmed hits are picked for further characterization by performing full dose-response curves to determine potency of each hit compound as represented by the IC50 values (i.e., the concentration of the test substance which inhibits 50% of the MES-induced calcium response; see, for example, FIGS. 1A, 1B and 1C, and FIGS. 13A and 13B).

hASIC1a [2] = molecular target: T1, hASIC1a; experiment: Whole-cell voltage clamp of pH-evoked response of human ASIC1a stably transfected in CHO cells; assay type: cell-based; parameters: expressed in transfected cells; settings: for effect on proton-gated currents from CHO cells expressing hASIC1a: 1 μM, voltage clamp
Procedure: FIG. 3 illustrates the inhibitory effect of Compound A on acid-evoked activation of human ASIC1a stably transfected in CHO cells. […] In this example, the size of the pH-evoked response was determined by measuring the area under the curve of the response (total charge transfer) and normalized to the control response. FIG. 3B depicts an example of an hASIC1a current (whole cell voltage clamp, −60 mV) evoked by a pH 6.8-buffered solution (from pH 7.4) in the presence or absence of Compound A (3 μM).
These endogenous proton-activated inward currents were recorded in the presence and absence of Compound J (1 μM) or Compound K (1 μM) using the whole cell configuration of the patch clamp method (voltage clamp mode).
All experiments are performed at room temperature (20-25° C.) in voltage clamp using conventional whole cell patch clamp methods (Neher, E., et al. (1978) Pfluegers Arch 375:219-228).
Coverslips with the cells are transferred to a 15 μl experimental chamber mounted on the stage of an inverted microscope (IMT-2, Olympus) supplied with Nomarski optics. Cells are continuously superfused with extracellular saline at a rate of 2.5 ml/min. After giga-seal formation, the whole cell configuration is attained by suction. The cells are held at a holding voltage of −60 mV and at the start of each experiment the current is continuously measured for 45 s to ensure a stable baseline. Solutions of low pH (<7) are delivered to the chamber through a custom-made gravity-driven flowpipe, the tip of which is placed approximately 50 μm from the cell. Application is triggered when the tubing connected to the flowpipe is compressed by a valve controlled by the Pulse-software. Initially, low pH (in general, pH 6.5) is applied for 5 s every 60 s. The sample interval during application is 5501s. After stable responses are obtained, the extracellular saline as well as the low-pH solution are switched to solutions containing the compound to be tested. The compound is present until responses of a repeatable amplitude are achieved. Current amplitudes are measured at the peak of the responses, and effect of the compounds is calculated as the amplitude at compound equilibrium divided by the amplitude of the current evoked by the pulse just before the compound was included.
The following salt solutions are used: extracellular solution (mM): NaCl (140), KCl (4), CaCl2 (2), MgCl2 (4), HEPES (10, pH 7.4); intracellular solution (mM): KCl (120), KOH (31), MgCl2 (1.785), EGTA (10), HEPES (10, pH 7.2). In general, compounds for testing are dissolved in 50% DMSO at 500 fold the highest concentration used.
Similar findings are shown in FIG. 3 with the human ASIC1a stably transfected in CHO cells. FIG. 3A compares the dose-response relationship between Compound A and amiloride [determined by measuring the area under the curve of the response (total charge transfer) and normalized to the control response]. […] FIGS. 14A and 14B show similar results for Compounds J and K.

| IC50 (hASIC1a [1]) [nM] | inhibitory effect on acid-induced hASIC1a activity (dose-response curve) (hASIC1a [1]) | SMILES | further results |
| --- | --- | --- | --- |
| 200 to 300 | – | COc1ccc(Cl)cc1-c1cc2c(c3c1CCN(C)C3)NC(=O)/C2=N/O [Compound C, 5-(5-chloro-2-methoxyphenyl)-6,7,8,9-tetrahydro-3-(hydroxyimino)-8-methyl-1H-pyrrolo[3,2-h]isoquinoline-2(3H)-one] | – |
| – | dose-dependently inhibit | CCN1CCc2c(-c3cc(Cl)ccc3OC)cc3c(c2C1)NC(=O)/C3=N/O [Compound G, 5-(5-chloro-2-methoxyphenyl)-6,7,8,9-tetrahydro-3-(hydroxyimino)-8-ethyl-1H-pyrrolo[3,2-h]isoquinoline-2(3H)-one] | – |
| 100 to 700 | – | CCN1CCc2c(-c3ccccc3OC)cc3c(c2C1)NC(=O)/C3=N/O [Compound J, 8-ethyl-5-(2-methoxy-phenyl)-6,7,8,9-tetrahydro-1H-pyrrolo[3,2-h]isoquinoline-2,3-dione 3-oxime] | effect on proton-gated currents from CHO cells expressing hASIC1a (hASIC1a [2]): inhibitory effects |

The remaining lines, values behind:

| SMILES | IC50 (hASIC1a [1]) [nM] | inhibitory effect on acid-induced hASIC1a activity (dose-response curve) (hASIC1a [1]) | further results |
| --- | --- | --- | --- |
| CCN1CCc2c(-c3cc(C)ccc3C)cc3c(c2C1)NC(=O)/C3=N/O [Compound F, 5-(2,5-dimethylphenyl)-6,7,8,9-tetrahydro-3-(hydroxyimino)-8-ethyl-1H-pyrrolo[3,2-h]isoquinoline-2(3H)-one] | – | dose-dependently inhibit | – |
| CCOc1ccccc1-c1cc2c(c3c1CCN(CC)C3)NC(=O)/C2=N/O [Compound K, 5-(2-ethoxy-phenyl)-8-ethyl-6,7,8,9-tetrahydro-1H-pyrrolo[3,2-h]isoquinoline-2,3-dione 3-oxime] | 300 to 1700 | – | effect on proton-gated currents from CHO cells expressing hASIC1a (hASIC1a [2]): inhibitory effects |
| Cc1cc(C)cc(-c2cc3c(c4c2CCN(C)C4)NC(=O)/C3=N/O)c1 [Compound D, 5-(3,5-dimethylphenyl)-6,7,8,9-tetrahydro-3-(hydroxyimino)-8-methyl-1H-pyrrolo[3,2-h]isoquinoline-2(3H)-one] | 250 to 350 | – | – |
| CCN1CCc2c(-c3cc(C)cc(C)c3)cc3c(c2C1)NC(=O)/C3=N/O [Compound E, 5-(3,5-dimethylphenyl)-6,7,8,9-tetrahydro-3-(hydroxyimino)-8-ethyl-1H-pyrrolo[3,2-h]isoquinoline-2(3H)-one] | – | dose-dependently inhibit | – |
| N=C(N)NC(=O)c1nc(Cl)c(N)nc1N [amiloride, reference compound] | – | – | effect on size of human ASIC1a pH-evoked response (area under the curve, total charge transfer, normalized to control) (hASIC1a [2]; CHO cells, -60 mV, pH 6.8 from pH 7.4): reduce the human ASIC1a pH-evoked response in a dose-dependent manner |
